In the assay the target is recombinant eIF4E (Homo sapiens (Human), UniProt P06730). Put plainly: Fluorescence polarization competition assay for eIF4E binding potency. Summed up: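 FP readout; IC50 fit from 8-point, 3-fold series. 75 nM eIF4E + 20 nM ATTO-550-labelled m7GDP probe, Tris pH 7.5/NaCl/DTT/Tween buffer, 1% DMSO final. 30 min RT equilibration, light-protected.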
The mark [1] stands for this setting: fluorescence polarization competition, 75 nM recombinant eIF4E, 20 nM EDA-m7GDP-ATTO-550, IC50 class, read-out: elF4E FP.
[2] abbreviates: inhibition of eIF4E/EDA-m7GDP-ATTO-550 binding by 50%, Table 4B calculated values, read-out: IC50.
Where [3] appears, read: inhibition of eIF4E/EDA-m7GDP-ATTO-550 binding, calculated IC50 values, Table 4B, read-out: IC50.

These results are taken from US11286268B1, “EIF4E-inhibiting compounds and methods” (EFFECTOR THERAPEUTICS, INC., priority 2019, dated 2022).

Read-outs that look alike come from different tables or passages of the source.

Sequence of recombinant eIF4E (P06730 whole entry): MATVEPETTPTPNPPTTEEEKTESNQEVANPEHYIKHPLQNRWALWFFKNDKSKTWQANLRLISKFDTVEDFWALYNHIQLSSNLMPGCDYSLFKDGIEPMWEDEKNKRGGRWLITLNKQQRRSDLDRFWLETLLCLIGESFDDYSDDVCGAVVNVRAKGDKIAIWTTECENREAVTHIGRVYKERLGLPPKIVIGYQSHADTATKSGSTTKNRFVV

With `Cc1nc2cc(F)c(F)c(C#N)c2c(=O)n1CCOc1ccc(Cl)cc1-c1ccnc2c(-c3nnn[nH]3)csc12` [compound 306], the IC50 reads like this: under setting [1], 50 to 1000 nM; under setting [2], 91.2 nM. In the case of `COC(=O)c1csc2c(-c3cc(Cl)ccc3OCCn3c(C)nc4cc(C(F)(F)F)c(N5CCN(C6CC6)CC5)c(C#N)c4c3=O)ccnc12` [compound 1206], the IC50 is, setting by setting: under setting [1], less than 50 nM; under setting [3], 32.5 nM. Regarding `N#Cc1cccc2nc(C(F)F)n(CCOc3ccc(Cl)cc3-c3ccc(C(=O)O)c(C(=O)O)c3)c(=O)c12` [compound 148], the IC50 by setting is: under setting [1], less than 50 nM; under setting [2], 20.5 nM.

For the compound `N#Cc1cc2c(=O)n(CCOc3ccc(Cl)cc3-c3cnc(C(=O)O)s3)cnc2cn1` [compound 54], the IC50 was greater than 1000 nM under setting [1] and 2280 nM under setting [2].

As to `Cc1nc2cc(CN(C)C)c(OC(F)F)c(C#N)c2c(=O)n1CCOc1ccc(Cl)cc1-c1ccnc2c(C(=O)O)csc12` [compound 458], the IC50 runs as follows: under setting [1], less than 50 nM; under setting [2], 36.8 nM. For `Cc1cc(-c2cc(Cl)ccc2OCCn2c(C)nc3cc(C(F)(F)F)c(-c4nn(C)cc4C)c(C#N)c3c2=O)c2scc(C(=O)O)c2n1` [compound 1027], in that order: less than 50 nM and 31.5 nM.

`Cc1nc2cc(C(F)F)c(CN(C)C)c(C#N)c2c(=O)n1CC#Cc1ccc(Cl)cc1-c1ccnc2c(C(=O)O)csc12` [compound 622]: the IC50 reads like this: under setting [1], less than 50 nM; under setting [2], 43.8 nM.

Take `CS(=O)(=O)c1cc(C#N)c2c(=O)n(CCOc3ccc(Cl)cc3-c3cccc(C(=O)O)c3)c(CF)nc2c1` [compound 233]: the IC50 reads like this: under setting [1], less than 50 nM; under setting [2], 28.9 nM.

Consider `Cc1cc(-c2cc(Cl)ccc2OCCn2c(C)nc3cnc([C@H]4C[C@@H](O)C4)c(C#N)c3c2=O)c2scc(C(=O)O)c2n1` [compound 1194], for which the IC50 is less than 50 nM under setting [1] and 15.3 nM under setting [3]. For the compound `Cc1cc(-c2cc(Cl)ccc2OCCn2c(C)nc3cc(C(F)(F)F)c(-c4nccnc4C)nc3c2=O)c2scc(C(=O)O)c2n1` [compound 1019], the IC50 was less than 50 nM under setting [1] and 30.8 nM under setting [2]. In the case of `Cc1nc2cc(C(F)(F)F)c(N3CCN(C)CC3)c(C#N)c2c(=O)n1CCOc1ccc(Cl)cc1-c1ccnc2cc(Cl)sc12` [compound 1246], the IC50 is 50 to 1000 nM under setting [1] and 106 nM under setting [3]. For the compound `Cc1nc2cnc(N3CC4(C3)CN(C3CC(F)(F)C3)C4)c(C#N)c2c(=O)n1CCOc1ccc(Cl)cc1-c1ccnc2c(C(=O)O)csc12` [compound 1475], the IC50 under setting [3] was 7.2 nM.

Turning to `Cc1nc2cc(C(F)(F)F)cc(C(F)(F)F)c2c(=O)n1CCOc1ccc(Cl)cc1-c1ccnc2c(C(=O)O)csc12` [compound 219], the IC50 was 50 to 1000 nM under setting [1] and 109 nM under setting [2]. Regarding `Cc1nc2cnc(N(C)C3CCN([C@@H]4C[C@H]4C(F)(F)F)CC3)c(C#N)c2c(=O)n1CC#Cc1ccc(Cl)cc1-c1ccnc2c(C(=O)O)csc12` [compound 1175], the IC50 reads like this: under setting [1], less than 50 nM; under setting [2], 22.1 nM. The matching figures for `Cc1c(CCOc2ccc(Cl)cc2-c2ccnc3c(C(=O)O)csc23)c(=O)c2c(C#N)cc(C(F)(F)F)cc2n1CCF` [compound 362]: 50 to 1000 nM and 72.2 nM.

For the compound `Cc1nc2c(F)c(C(F)(F)F)cc(C#N)c2c(=O)n1CCOc1ccc(Cl)cc1-c1ccnc2c(C(=O)O)csc12` [compound 294], the IC50 under setting [1] is less than 50 nM and the IC50 under setting [2] was 22.9 nM. On to `Cc1nc2cnc(OC3CCN(C4CC(F)(F)C4)CC3)c(C#N)c2c(=O)n1CCOc1ccc(Cl)cc1-c1ccnc2c(C(=O)O)csc12` [compound 1543], for which, under setting [3], the IC50 was 20.5 nM. Regarding `Cc1nc2c(F)c(F)c(C(F)F)c(C#N)c2c(=O)n1CCOc1ccc(Cl)cc1-c1ccnc2c(C(=O)O)csc12` [compound 298], the IC50 runs as follows: under setting [1], 50 to 1000 nM; under setting [2], 101 nM.

Consider `Cc1cc(-c2cc(Cl)ccc2OCCn2c(C)nc3cc(Cl)c(N(C)C4CC4)c(C#N)c3c2=O)c2scc(C(=O)O)c2n1` [compound 957], for which the IC50 is, setting by setting: under setting [1], less than 50 nM; under setting [2], 5.81 nM. Take `CCN(c1ncc2nc(C)n(CC#Cc3ccc(Cl)cc3-c3ccnc4c(C(=O)NS(C)(=O)=O)csc34)c(=O)c2c1C#N)C1CCN([C@H]2C[C@H](OC(F)F)C2)CC1` [compound 1767]: under setting [3], the IC50 was 17.4 nM.

As for `Cc1nc2cc(CN3CC(F)(F)C3)c(OC(F)F)c(C#N)c2c(=O)n1CCOc1ccc(Cl)cc1-c1ccnc2c(C(=O)O)csc12` [compound 1277], the IC50 under setting [3] was 38.4 nM. For the compound `Cc1nc2cnc(/C=C/C3(N(C)C)CC3)c(C#N)c2c(=O)n1CCOc1ccc(Cl)cc1-c1ccnc2c(C(=O)O)csc12` [compound 1123], the IC50 was less than 50 nM under setting [1] and 21.5 nM under setting [2]. As for `Cc1nc2cc(C(F)F)cc(C#N)c2c(=O)n1CCOc1ccc(Cl)cc1-c1ccnc2c(C(=O)O)csc12` [compound 1939], the IC50 under setting [3] is 24.5 nM.

Take `N#Cc1cc2c(=O)n(CCOc3ccc(Cl)cc3-c3ccc(F)c(C(=O)O)c3F)cnc2cn1` [compound 91]: the IC50 is 50 to 1000 nM under setting [1] and 287 nM under setting [2].

As for `Cc1ccc(S(=O)(=O)NC(=O)c2csc3c(-c4cc(Cl)ccc4C#CCn4c(C)nc5cnc(N(C)C6CCN(CC(C)(F)F)CC6)c(C#N)c5c4=O)ccnc23)cn1` [compound 1680], the IC50 under setting [3] is 23.3 nM. On the same count and under the same terms, the result for `Cc1nc2cnc(C3=CCN(CCF)CC3)c(C#N)c2c(=O)n1CC#Cc1ccc(Cl)cc1-c1ccnc2c(C(=O)O)csc12` [compound 1462] reads 20.1 nM. For the compound `Cc1nc2cc(S(C)(=O)=O)c(Cl)c(C#N)c2c(=O)n1CCOc1ccc(Cl)cc1-c1ccnc2c(C(=O)O)csc12` [compound 277], the IC50 under setting [1] is less than 50 nM and the IC50 under setting [2] is 30.7 nM. Take `Cc1cc(-c2cc(Cl)ccc2OCCn2c(C)nc3c(-c4ccccc4)ncc(C#N)c3c2=O)c2scc(C(=O)O)c2n1` [compound 1378]: under setting [3], the IC50 is 30 nM.

In the case of `Cc1cc(-c2cc(Cl)ccc2OCCn2c(C)nc3cc(C(F)(F)F)c(N4CC(C)(O)C4)c(C#N)c3c2=O)c2scc(C(=O)O)c2n1` [compound 1055], the IC50 is less than 50 nM under setting [1] and 11.7 nM under setting [2]. The matching figures for `Cc1nc2cc(C(F)(F)F)c(N3CCN(CC(F)(F)F)CC3)c(C#N)c2c(=O)n1CCOc1ccc(Cl)cc1-c1ccnc2c(C(=O)O)csc12` [compound 640]: less than 50 nM and 24 nM. The matching figures for `Cc1cc(-c2cc(Cl)ccc2OCCn2c(C)nc3cc(C(F)(F)F)c(CC4CN(C)C4)c(C#N)c3c2=O)c2scc(C(=O)O)c2n1` [compound 425]: less than 50 nM and 11.2 nM. Regarding `N#Cc1cc2c(=O)n(CCOc3ccc(Cl)cc3-c3cc(C(=O)O)c4cc[nH]c4n3)cnc2cn1` [compound 117], the IC50 by setting is: under setting [1], greater than 1000 nM; under setting [2], greater than 3000 nM.

As to `Cc1cc(-c2cc(Cl)ccc2OCCn2c(C)nc3cc(C(F)(F)F)cc(C#N)c3c2=O)c2scc(C(=O)NCC(=O)O)c2n1` [compound 398], the IC50 under setting [1] was 50 to 1000 nM and the IC50 under setting [2] is 149 nM. `Cc1nc(N(C)C2CCN(CC(C)(F)F)CC2)c(C#N)c2c(=O)n(CCOc3ccc(Cl)cc3-c3ccnc4c(C(=O)O)csc34)c(C)nc12` [compound 1562]: the IC50 under setting [3] was 16.8 nM. With `Cn1cc(-c2cc(Cl)ccc2OCCn2cnc3cnc(C#N)cc3c2=O)cc1C(=O)O` [compound 82], the IC50 is, setting by setting: under setting [1], greater than 1000 nM; under setting [2], 1660 nM. The matching figures for `Cc1nc2cc(Cl)c(S(=O)(=O)N(C)C)c(C#N)c2c(=O)n1CCOc1ccc(Cl)cc1-c1ccnc2c(C(=O)O)csc12` [compound 247]: 50 to 1000 nM and 61.1 nM. For `Cc1nc2cc(C(F)(F)F)c(CN(C)C)c(C#N)c2c(=O)n1CC#Cc1ccc(Cl)cc1-c1ccnc2c(C(=O)O)csc12` [compound 553], in that order: less than 50 nM and 13.4 nM. For `Cc1cc(-c2cc(Cl)ccc2OCCn2c(C)nc3cnc(-c4cccc(Cl)c4)c(C#N)c3c2=O)c2scc(C(=O)O)c2n1` [compound 948], in that order: less than 50 nM and 18.3 nM.

On to `Cc1nc2cnc(N3CCN(CCC(F)(F)F)CC3)c(C#N)c2c(=O)n1CC#Cc1ccc(Cl)cc1-c1ccnc2c(C(=O)O)csc12` [compound 1160], for which the IC50 was less than 50 nM under setting [1] and 17.2 nM under setting [2]. Consider `Cc1nc2cnc(N(C)C3CCN([C@H]4C[C@@H]4C(F)(F)F)CC3)c(C#N)c2c(=O)n1CC#Cc1ccc(Cl)cc1-c1ccnc2c(C(=O)O)csc12` [compound 1724], for which the IC50 under setting [3] is 4.07 nM. For the compound `Cc1nc2cc(C(F)(F)F)cc(C#N)c2c(=O)n1CCOc1ccc(Cl)cc1N1CCC(C(=O)O)CC1` [compound 326], the IC50 runs as follows: under setting [1], greater than 1000 nM; under setting [2], 1440 nM. The matching figures for `N#Cc1cc2c(=O)n(CCOc3ccc(Cl)cc3-c3cnc(C(F)F)c(C(=O)O)c3)cnc2cn1` [compound 109]: greater than 1000 nM and 19200 nM.

Consider `Cc1nc2cnc(N3CCN(CCCF)CC3)c(C#N)c2c(=O)n1CC#Cc1ccc(Cl)cc1-c1ccnc2c(C(=O)O)csc12` [compound 1457], for which, under setting [3], the IC50 was 18 nM.

For `Cc1nc2cnc(N3CCC[C@@H]4CN(CC(F)F)CC[C@@H]43)c(C#N)c2c(=O)n1CC#Cc1ccc(Cl)cc1-c1ccnc2c(C(=O)O)csc12` [compound 1544], the IC50 under setting [3] is 13.1 nM.

`Cc1cc(-c2cc(Cl)ccc2OCCn2c(C)nc3cnc(N4CCC4)c(C#N)c3c2=O)c2scc(C(=O)O)c2n1` [compound 435]: the IC50 was less than 50 nM under setting [1] and 16.7 nM under setting [2]. On to `Cc1nc2cncc(OCCN(C)C)c2c(=O)n1CCOc1ccc(Cl)cc1-c1ccnc2c(C(=O)O)csc12` [compound 841], for which the IC50 by setting is: under setting [1], 50 to 1000 nM; under setting [2], greater than 1000 nM.
